{"source": "ChEMBL document CHEMBL3045114", "about": "“SAR studies of sesquiterpene lactones as Orobanche cumana seed germination stimulants” (2002)", "note": "The source made the active and inactive calls. The calls are words filed in the database; no cut-off is given here.", "data": [{"tested_on": "Orobanche crenata", "assay": "Induction of Orobanche crenata seed germination after 6 days", "format": "functional", "units": {"Activity": "%"}, "values": [{"smiles": "CC1=C[C@H](O/C=C2/C(=O)O[C@@H]3C4=C(CCC[C@@H]4C)C[C@H]23)OC1=O", "note": "[SORGOLACTONE]", "Activity": ">40"}]}, {"tested_on": "Phelipanche ramosa", "assay": "Induction of Orobanche ramosa seed germination at 100 uM after 6 days", "format": "functional", "units": {"Activity": "%"}, "values": [{"smiles": "CC1=C[C@H](O/C=C2/C(=O)O[C@@H]3c4ccccc4C[C@H]23)OC1=O", "Activity": 65}]}, {"tested_on": "Orobanche minor", "assay": "Induction of Orobanche minor seed germination at 0.001 uM after 6 days", "format": "functional", "units": {"Activity": "%"}, "values": [{"smiles": "CC1=C[C@H](O/C=C2/C(=O)O[C@@H]3C4=C(CCCC4(C)C)[C@@H](O)[C@H]23)OC1=O", "note": "[OROBANCHOL]", "Activity": ">40"}, {"smiles": "CC1=CC(O/C=C2/C(=O)OC3C2C=C2CCCC(C)(C)C23O)OC1=O", "note": "(stereo unspecified) [ALECTROL]", "Activity": ">40"}, {"smiles": "COC(=O)/C(=C/O[C@H]1C=C(C)C(=O)O1)N1C(=O)c2ccccc2C1=O", "note": "[NIJMEGEN-1]", "Activity": 0}, {"smiles": "CC1=C[C@H](O/C=C2/C(=O)O[C@@H]3C4=C(C[C@H]23)[C@@H](O)CCC4(C)C)OC1=O", "note": "[STRIGOL]", "Activity": ">40"}]}, {"tested_on": "Orobanche crenata", "assay": "Induction of Orobanche crenata seed germination at 100 uM after 6 days", "format": "functional", "units": {"Activity": "%"}, "values": [{"smiles": "CC1=C[C@H](O/C=C2/C(=O)O[C@@H]3c4ccccc4C[C@H]23)OC1=O", "Activity": 80}]}, {"tested_on": "Orobanche cernua var. cumana", "assay": "Induction of Orobanche cernua var. cumana seed germination at 100 uM after 6 days", "format": "functional", "units": {"Activity": "%"}, "values": [{"smiles": "CC1=C[C@H](O/C=C2/C(=O)O[C@@H]3c4ccccc4C[C@H]23)OC1=O", "Activity": 50}]}, {"tested_on": "Orobanche cernua var. cumana", "assay": "Induction of Orobanche cernua var. cumana seed germination at 10 uM after 6 days", "format": "functional", "values": [{"smiles": "CC1=C[C@@H](O/C=C2/C(=O)O[C@H]3C=CC[C@@H]23)OC1=O", "Activity": "0%"}, {"smiles": "C=C1CC[C@H]2[C@H](CO)C(=O)O[C@@H]2C2C(=C)CCC12", "note": "(stereo partly specified)", "Activity": ">40%"}, {"smiles": "CC1=C[C@H](O/C=C2/C(=O)O[C@@H]3c4ccccc4C[C@H]23)OC1=O", "Activity": "65%"}, {"smiles": "C=C1[C@@H]2[C@H]3OC(=O)C(=C)[C@@H]3CCC(=C)[C@@H]2C[C@H]1O", "note": "[ISOZALUZANIN C]", "Activity": ">40%"}, {"smiles": "C=C1C2[C@H]3OC(=O)C(=C)[C@@H]3CC[C@@]2(C)[C@H](O)C[C@H]1O", "note": "(stereo partly specified)", "Activity": "inactive"}, {"smiles": "C=C1CC[C@@H](O)[C@]2(C)CC[C@H]3C(=C)C(=O)O[C@@H]3[C@@H]12", "note": "[REYNOSIN]", "Activity": "0%"}, {"smiles": "C=C1C(=O)O[C@@H]2C3O[C@]3(C)CC/C=C(\\C)CC[C@@H]12", "note": "(stereo partly specified)", "Activity": ">40%"}, {"smiles": "C=C1CC[C@H]2[C@H](CO)C(=O)O[C@@H]2C2C(=C)[C@H](O)CC12", "note": "(stereo partly specified)", "Activity": ">40%"}, {"smiles": "C=C1C(=O)O[C@H]2[C@H]1CC[C@@]1(C)[C@H](O)CC=C(C)[C@]21O", "Activity": "inactive"}, {"smiles": "C/C1=C\\CC[C@@]2(C)O[C@@H]2[C@H]2OC(=O)[C@](C)(O)[C@@H]2CC1", "Activity": "0%"}, {"smiles": "C=C1C(=O)O[C@H]2[C@H]1CCC(=C)[C@]1(O)C[C@@H](O)C(=C)[C@]21O", "Activity": "0%"}, {"smiles": "C=C1C(=O)O[C@@H]2/C=C(\\C)CC/C=C(/CO)CC[C@@H]12", "Activity": "0%"}, {"smiles": "C=C1C(=O)O[C@@H]2/C=C(\\C)CC[C@H]3O[C@]3(C)CC[C@@H]12", "note": "[1,10-EPOXYCOSTUNOLIDE]", "Activity": ">40%"}]}]}
